# Measured values reported in patent publication US20240366626A1, “OPHTHALMIC PREPARATION FOR MYOPIA SUPPRESSION” (TSUBOTA LABORATORY, INC., priority 2021, published 2024).
# “Also recorded” adds a separate entry of the source. Where a name gives a salt, the structure may show the parent alone.
# Tested on: mouse myopia model
# Assay: Mouse myopia model (−30D lens on right eye, 0D on left), eye drops for three weeks; change in refractive index and axial length measured
# Type: in vivo, mice (C57BL6/J)
# Conditions: for myopia suppressing effect (overall conclusion): mouse myopia model, eye drops for three weeks; for change in refractive index / change in axial length: −30D lens eyes vs OD lens eyes after three weeks of eye drops, bunazosin two drops once or twice per day, unoprostone two drops once per day; for change in refractive index: infrared photorefractor; for change in axial length: spectral domain OCT
# Procedure: The present inventors, with a focus on the fact that certain glaucoma ophthalmic preparations are effective in suppressing myopia progression, attempted to find myopia progression suppressing effects from existing glaucoma ophthalmic preparations. In the present application, glaucoma ophthalmic preparations were administered to a mouse myopia model, and an axial length and a refractive index were measured to evaluate whether the eye drops were effective in suppressing the progression of axial myopia.
# Eye drops were continuously administered for three weeks, with phosphate buffered saline (PBS) eye drops as the control group and bunazosin eye drops as the test group. Bunazosin is the main ingredient of a Detantol ophthalmic solution, and bunazosin eye drops were administered using Detantol 0.01% ophthalmic solution (manufactured by Santen Pharmaceutical Co. Ltd., 1 mL contains 0.1 mg of bunazosin hydrochloride). The number of eye drops was two drops once per day and twice a day (two drops each in the morning and evening). The refractive index and the axial length of the mouse eyeball after three weeks were measured and the amounts of change were calculated.
# The refractive values were measured by using an infrared photorefractor for mice (manufactured by Prof. Schaeffel, University of Tubingen). The axial lengths were measured by using spectral domain optical coherence tomography (Envisu R4310, manufactured by Leica).
# Mice similar to those in Experiment 1 were used to induce myopia. Eye drops were continually administered for three weeks, with PBS eye drops as the control group and unoprostone eye drops as the test group. Unoprostone is the main ingredient of a Rescula ophthalmic solution, and unoprostone eye drops were administered (two drops once per day, per eye) with Rescula ophthalmic solution 0.12% (Nitto Medic Co., Ltd., 1 mL contains 1.2 mg of isopropyl unoprostone). The refractive index and the axial length of the mouse eyeball after three weeks were measured and the amounts of change were calculated. The refractive index measurement and the axial length measurement were the same as in Experiment 1.
# [1] = two drops once per day vs twice a day, three weeks
SMILES,myopia suppressing effect (overall conclusion),change in refractive index,change in axial length,myopia suppressing effect (overall conclusion) (hydrochloride),"comparison of dosing frequency (once vs twice per day), axial length [1]","comparison of dosing frequency (once vs twice per day), refractive index [1]"
"CCCCCCCC(=O)CC[C@@H]1[C@@H](C/C=C\CCCC(=O)OC(C)C)[C@@H](O)C[C@H]1O [unoprostone, isopropyl unoprostone]",did not exhibit a myopia suppressing effect; also recorded: does not exhibit a myopia suppressing effect,both eyes became myopic and no myopia suppressing effect of the eye drops was confirmed,no significant difference in the axial lengths of the two eyes was confirmed,,,
"CCCC(=O)N1CCCN(c2nc(N)c3cc(OC)c(OC)cc3n2)CC1 [bunazosin, bunazosin hydrochloride]",,no significant difference between the eyes with the −30D lenses and the eyes with OD lenses,substantially no difference in the axial lengths between the two eyes,exhibited a myopia-suppressing effect; also recorded: exhibits a myopia suppressing effect,no difference between one eye drop and two eye drops,one eye drop has a greater myopia suppressing effect than two eye drops
